The values that follow come from US20130072404A1, “APPARATUS AND PROCESSES FOR GENERATING VARIABLE CONCENTRATION OF SOLUTES IN MICRODROPLETS” (UNIVERSITE DE STRASBOURG, priority 2009, published 2013).

Like-named read-outs stand apart in the source and are kept apart here.

Parameters in all cases: purchased Sigma-Aldrich Co
Assay [1] concerns the target T1, β-galactosidase (Escherichia coli, UniProt P00722). Kind of assay: Droplet microfluidic IC50 measurement, Taylor dispersion dilution (Example 1c), RBG substrate. The assay is classed as biochemical. Particulars: Taylor dispersion pulse, 30 s droplet incubation, 4-parameter log-logistic fit; read-out: IC50 of PETG in the enzyme/substrate/inhibitor system. The text has this:
In the examples, the model systems comprised an enzyme, a substrate, and an inhibitor for IC50 measurements and an enzyme and substrate alone for KM measurements. In all cases the enzyme was β-galactosidase (Sigma-Aldrich Co.), the substrate was resorufin β-D-galactopyranoside (RBG; Invitrogen Corporation), and the inhibitor was phenylethyl β-D-thiogalactopyranoside (PETG; Invitrogen Corporation).
A microfluidic emulsion of 90 pl aqueous microdroplets was generated by injecting the microfluidic device (FIG. 2) with an oil phase and three aqueous phases. The oil phase consisted of 1% (w/w) EA surfactant dissolved in HFE-7500 flowing at 680 μl/hr. […]
The autosampler was used to introduce a single 1 μl pulse of 120 μM PETG (the inhibitor) to the PBS flowing to the device through the silane-treated capillary. The inclusion of 40 μM of the fluorophore sodium fluorescein with the inhibitor allowed the concentration of PETG to be inferred downstream from the degree of fluorescence observed in the 500-520 nm channel. […]
The microdroplets in the initial climb in inhibitor concentration (the leading front of the inhibitor pulse) were plotted in an XY graph with initial reaction rate (inferred from resorufin fluorescence after 30 seconds of droplet incubation) against inhibitor concentration (assumed to be proportional to sodium fluorescein fluorescence). […]

The target of assay [2] is T1, β-galactosidase. Kind of assay: Standard microplate assay (Example 1 comparison values). Particulars: read-out: IC50 of PETG measured in a standard microplate assay. It is filed as biochemical.
In assay [3] the target is T1, β-galactosidase. In words: Microplate dose-response assay, β-galactosidase (Example 2). Particulars: 8-point microplate assay, n=10; read-out: IC50 obtained in microplate. It is filed as biochemical. As to the method: For β-galactosidase, a solution of the inhibitor PETG was diluted to 200 μM in PBS and then further diluted in 3-fold serial dilution steps seven times (200 μM down to […]). 10 μl aliquots of each dilution were pipetted into the wells of a black, opaque 384-well plate (Corning, Inc., New York, USA). A stock of the substrate FDG was diluted to 240 μM in PBS and 10 μl aliquots were added to the wells. The reactions were initiated by adding 20 μl of 10 U/ml β-galactosidase, in PBS containing 2 g/l BSA, to each well. A SpectraMax M5 microplate reader (Molecular Devices, Inc., California, USA) was used to monitor the reactions at 25° C. with an excitation wavelength of 490 nm, an emission wavelength of 514 nm (automatic cut-off), and a 15 second period between measurements. The initial rate of each reaction was determined and the percentage inhibition of β-galactosidase activity was calculated by scaling this initial rate between a blank (no enzyme, equivalent to 100% inhibition) and a positive control (no inhibitor, equivalent to 0% inhibition) in the same manner as Eq. 1 (see above). When required, the 4-parameter Hill function was fitted to a plot of percentage inhibition against logged inhibitor concentration to determine the IC50 of PETG.

Assay [4] concerns the target T1, β-galactosidase. Particulars: Angenendt et al., 2004; read-out: IC50 literature value; cited from earlier work.

T1 sequence (P00722 2-1024 limits assumed): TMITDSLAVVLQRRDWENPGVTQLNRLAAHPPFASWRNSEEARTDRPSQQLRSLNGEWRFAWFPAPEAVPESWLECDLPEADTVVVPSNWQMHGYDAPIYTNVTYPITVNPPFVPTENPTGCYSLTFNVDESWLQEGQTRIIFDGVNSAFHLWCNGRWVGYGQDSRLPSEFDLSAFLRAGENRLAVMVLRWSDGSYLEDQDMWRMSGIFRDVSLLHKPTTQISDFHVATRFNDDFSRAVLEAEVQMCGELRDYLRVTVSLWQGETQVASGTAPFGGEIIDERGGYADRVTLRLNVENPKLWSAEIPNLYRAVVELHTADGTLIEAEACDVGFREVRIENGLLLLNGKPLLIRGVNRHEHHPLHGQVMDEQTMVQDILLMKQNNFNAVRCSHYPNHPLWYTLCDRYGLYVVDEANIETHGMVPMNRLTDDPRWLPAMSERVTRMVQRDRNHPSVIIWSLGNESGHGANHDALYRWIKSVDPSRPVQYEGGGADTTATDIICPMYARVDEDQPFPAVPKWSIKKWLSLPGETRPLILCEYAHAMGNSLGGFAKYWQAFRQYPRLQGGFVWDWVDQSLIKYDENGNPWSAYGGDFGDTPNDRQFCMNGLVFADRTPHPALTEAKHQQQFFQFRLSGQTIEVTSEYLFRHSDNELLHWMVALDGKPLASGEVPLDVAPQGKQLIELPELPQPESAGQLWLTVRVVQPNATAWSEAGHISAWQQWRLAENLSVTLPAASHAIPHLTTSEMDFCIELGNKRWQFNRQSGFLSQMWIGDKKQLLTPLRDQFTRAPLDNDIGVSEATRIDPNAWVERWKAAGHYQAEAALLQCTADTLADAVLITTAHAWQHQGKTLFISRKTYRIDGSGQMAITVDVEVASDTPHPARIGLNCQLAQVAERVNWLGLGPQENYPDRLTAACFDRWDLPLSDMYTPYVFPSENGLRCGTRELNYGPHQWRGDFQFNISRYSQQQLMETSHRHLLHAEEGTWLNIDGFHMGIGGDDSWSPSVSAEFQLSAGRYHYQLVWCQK

Regarding `OC[C@H]1O[C@@H](SCCc2ccccc2)[C@H](O)[C@@H](O)[C@H]1O` [PETG, phenylethyl β-D-thiogalactopyranoside], the IC50 at β-galactosidase [1] was 3.04 µM; on β-galactosidase [2] it was 1.43 µM; on β-galactosidase [3] it was 2.72 µM; at β-galactosidase [4] it was 3.1 µM.
